# Experimental data: US20240116985A1, “STAPLED PEPTIDES AND METHODS THEREOF” (priority 2020, published 2024)
# Read-outs that look alike come from different tables or passages of the source.
# Columns and labels:
# [1] = molecular target: T1, full-length beta-Catenin (Uniprot ID P35222) (Homo sapiens, UniProt P35222); assay: Fluorescence polarization IC50 (beta-catenin / 5FAM-TCF4 10-53 competition); type: binding
# T1 construct: 10 nM full-length beta-Catenin (Uniprot ID P35222)
# T1 sequence (P35222 1-781): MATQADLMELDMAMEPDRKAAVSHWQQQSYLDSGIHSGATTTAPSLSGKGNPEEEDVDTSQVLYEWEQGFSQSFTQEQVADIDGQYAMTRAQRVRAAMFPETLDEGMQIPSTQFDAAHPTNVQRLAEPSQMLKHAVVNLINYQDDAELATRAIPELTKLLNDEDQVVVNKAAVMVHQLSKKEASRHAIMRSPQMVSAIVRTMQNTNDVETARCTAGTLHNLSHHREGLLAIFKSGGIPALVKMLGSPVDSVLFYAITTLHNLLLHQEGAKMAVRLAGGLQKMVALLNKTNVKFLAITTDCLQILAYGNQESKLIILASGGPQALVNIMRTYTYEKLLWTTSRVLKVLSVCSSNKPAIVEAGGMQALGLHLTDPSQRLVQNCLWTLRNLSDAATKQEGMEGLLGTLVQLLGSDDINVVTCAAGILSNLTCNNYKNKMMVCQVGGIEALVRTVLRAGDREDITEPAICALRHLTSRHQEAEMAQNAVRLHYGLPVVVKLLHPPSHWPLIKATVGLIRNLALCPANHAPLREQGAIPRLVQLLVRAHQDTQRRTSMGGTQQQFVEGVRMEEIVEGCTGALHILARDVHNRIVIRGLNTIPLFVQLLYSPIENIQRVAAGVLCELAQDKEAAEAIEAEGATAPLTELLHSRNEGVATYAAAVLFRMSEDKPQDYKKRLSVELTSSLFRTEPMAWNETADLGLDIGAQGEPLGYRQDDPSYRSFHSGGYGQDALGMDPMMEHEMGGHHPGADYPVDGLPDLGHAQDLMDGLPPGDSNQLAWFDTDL
# [2] = Solubility in PBS; type: physicochemical
# Outline: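 Steps: ultracentrifuge the peptide PBS solution, inject the supernatant on HPLC, inject a 50 μM peptide DMSO solution as reference, then calculate solubility as area ratio (PBS/DMSO) × 50 uM.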
# [3] = molecular target: T2, beta-catenin/TCF4 engagement (Homo sapiens, UniProt P35222); assay: Nano-BRET target engagement assay (B-cat-Halo & TCF4-Luc in HEK293 cells); type: cell-based
# T2 construct: expressed in transfected cells; host or cells: HEK293
# T2 sequence (P35222 1-781): T1 sequence (P35222 1-781)
# [4] = fluorescence polarization, read-out: beta-Catenin FP IC50
# [5] = absolute IC50, read-out: NanoBRET Abs IC50
"IC50 [1, 4] [nM]",Solubility [2] [µM],"IC50 [3, 5] [nM]",Solubility ([2]; Solubility (uM)) [µM],SMILES,"IC50 ([1]; beta-Catenin FP IC50, fluorescence polarization) [nM]","IC50 ([3]; NanoBRET Abs IC50, absolute IC50) [nM]"
31,50,19800,,"COCCC(=O)N1CCC[C@]12CC=CCCCC1(CCCC=CCCCCCC[C@@](C)(C(=O)N[C@@H](Cc3ccccc3Cl)C(=O)N[C@@H](Cc3csc4ccccc34)C(=O)N[C@@H](CCC(N)=O)C(N)=O)NC(=O)[C@H]([C@@H](C)O)NC(=O)[C@H](Cc3ccccc3)NC(=O)[C@H](C)NC(=O)[C@H](C)NC(=O)[C@H](CC(=O)O)NC(=O)[C@H](CC(=O)O)NC1=O)NC(=O)[C@H](CC(C)(C)C)NC(=O)[C@H](CC(=O)O)NC2=O (stereo partly drawn) [I-1261, MeOPr-PL3-Asp-Npg-B5-Asp-Asp-Ala-Ala-Phe-Thr-S8-2C1F-BztA-Gln-NH2]",,
43,,20000,12,"CC(=O)N1CCC[C@]12CC=CCCCC1(CCCC=CCCCOC(=O)N3CC[C@@](C(=O)N[C@@H](Cc4ccccc4)C(=O)N[C@@H](Cc4csc5ccccc45)C(=O)N[C@@H](CO)C(N)=O)(C3)NC(=O)[C@H]([C@@H](C)O)NC(=O)[C@H](Cc3ccccc3)NC(=O)[C@H](C)NC(=O)[C@H](C)NC(=O)[C@H]([C@@H](C)O)NC(=O)[C@H](CC(=O)O)NC1=O)NC(=O)[C@H](CC(C)(C)C)NC(=O)[C@H](CC(=O)O)NC2=O (stereo partly drawn) [I-1263, Ac-PL3-Asp-Npg-B5-Asp-Thr-Ala-Ala-Phe-Thr-PyrS2-Phe-BztA-Ser-NH2]",,
152,10,22700,,"CC(=O)N1CCC[C@]12CC=CCCCC1(CCCC=CCCCOC(=O)N3CC[C@@](C(=O)N[C@@H](Cc4ccccc4)C(=O)N[C@@H](Cc4csc5ccccc45)C(=O)N[C@@H](CO)C(N)=O)(C3)NC(=O)[C@H]([C@@H](C)O)NC(=O)[C@H](Cc3ccccc3)NC(=O)[C@H](CC(C)C)NC(=O)[C@H](C)NC(=O)[C@H]([C@@H](C)O)NC(=O)[C@H](CC(=O)O)NC1=O)NC(=O)[C@H](CC(C)(C)C)NC(=O)[C@H](CC(=O)O)NC2=O (stereo partly drawn) [I-1265, Ac-PL3-Asp-Npg-B5-Asp-Thr-Ala-Leu-Phe-Thr-PyrS2-Phe-BztA-Ser-NH2]",,
755,10,> 20000,,"CC(=O)N1CCC[C@]12CC=CCCCC1(CCCC=CCCCOC(=O)N3CC[C@@](C(=O)N[C@@H](Cc4ccccc4)C(=O)N[C@@H](Cc4csc5ccccc45)C(=O)N[C@@H](CO)C(N)=O)(C3)NC(=O)[C@H]([C@@H](C)O)NC(=O)[C@H](Cc3cccc4ccccc34)NC(=O)[C@H](C)NC(=O)[C@H](C)NC(=O)[C@H]([C@@H](C)O)NC(=O)[C@H](CC(=O)O)NC1=O)NC(=O)[C@H](CC(C)(C)C)NC(=O)[C@H](CC(=O)O)NC2=O (stereo partly drawn) [I-1266, Ac-PL3-Asp-Npg-B5-Asp-Thr-Ala-Ala-1NapA-Thr-PyrS2-Phe-BztA-Ser-NH2]",,
181,10,36900,,"CC(=O)N1CCC[C@]12CC=CCCCC1(CCCC=CCCCOC(=O)N3CC[C@@](C(=O)N[C@@H](Cc4ccccc4)C(=O)N[C@@H](Cc4csc5ccccc45)C(=O)N[C@@H](CO)C(N)=O)(C3)NC(=O)[C@H]([C@@H](C)O)NC(=O)[C@H](Cc3ccc4ccccc4c3)NC(=O)[C@H](C)NC(=O)[C@H](C)NC(=O)[C@H]([C@@H](C)O)NC(=O)[C@H](CC(=O)O)NC1=O)NC(=O)[C@H](CC(C)(C)C)NC(=O)[C@H](CC(=O)O)NC2=O (stereo partly drawn) [I-1267, Ac-PL3-Asp-Npg-B5-Asp-Thr-Ala-Ala-2NapA-Thr-PyrS2-Phe-BztA-Ser-NH2]",,
173,10,17600,,"CC(=O)N1CCC[C@]12CC=CCCCC1(CCCC=CCCCOC(=O)N3CC[C@@](C(=O)N[C@@H](Cc4cccc5ccccc45)C(=O)N[C@@H](Cc4csc5ccccc45)C(=O)N[C@@H](CO)C(N)=O)(C3)NC(=O)[C@H]([C@@H](C)O)NC(=O)[C@H](Cc3ccccc3)NC(=O)[C@H](C)NC(=O)[C@H](C)NC(=O)[C@H]([C@@H](C)O)NC(=O)[C@H](CC(=O)O)NC1=O)NC(=O)[C@H](CC(C)(C)C)NC(=O)[C@H](CC(=O)O)NC2=O (stereo partly drawn) [I-1269, Ac-PL3-Asp-Npg-B5-Asp-Thr-Ala-Ala-Phe-Thr-PyrS2-1NapA-BztA-Ser-NH2]",,
9,,> 20000,32,"CC(=O)N1CCC[C@]12CC=CCCCC1(CCCC=CCCCOC(=O)N3CC[C@@](C(=O)N[C@@H](Cc4ccccc4Cl)C(=O)N[C@@H](Cc4csc5ccccc45)C(=O)N[C@H](C(N)=O)[C@@H](C)O)(C3)NC(=O)[C@H]([C@@H](C)O)NC(=O)[C@H](Cc3ccccc3)NC(=O)[C@H](C)NC(=O)[C@H](CCCCNC(C)C)NC(=O)[C@H](CC(=O)O)NC(=O)[C@H](CC(=O)O)NC1=O)NC(=O)[C@H](CC(C)(C)C)NC(=O)[C@H](CC(=O)O)NC2=O (stereo partly drawn) [I-1273, Ac-PL3-Asp-Npg-B5-Asp-Asp-iPrLys-Ala-Phe-Thr-PyrS2-2C1F-BztA-Thr-NH2]",,
13,10,> 20000,,"CC(=O)N1CCC[C@]12CC=CCCCC1(CCCC=CCCCOC(=O)N3CC[C@@](C(=O)N[C@@H](Cc4ccccc4Cl)C(=O)N[C@@H](Cc4csc5ccccc45)C(=O)N[C@@H](CC(C)C)C(N)=O)(C3)NC(=O)[C@H]([C@@H](C)O)NC(=O)[C@H](Cc3ccccc3)NC(=O)[C@H](C)NC(=O)[C@H](CCCCNC(C)C)NC(=O)[C@H](CC(=O)O)NC(=O)[C@H](CC(=O)O)NC1=O)NC(=O)[C@H](CC(C)(C)C)NC(=O)[C@H](CC(=O)O)NC2=O (stereo partly drawn) [I-1274, Ac-PL3-Asp-Npg-B5-Asp-Asp-iPrLys-Ala-Phe-Thr-PyrS2-2C1F-BztA-Leu-NH2]",,
10,,18000,25,"CC(=O)N1CCC[C@]12CC=CCCCC1(CCCC=CCCCOC(=O)N3CC[C@@](C(=O)N[C@@H](Cc4ccccc4Cl)C(=O)N[C@@H](Cc4csc5ccccc45)C(=O)N[C@@H](CCC(N)=O)C(N)=O)(C3)NC(=O)[C@H](CCCCNC(C)C)NC(=O)[C@H](Cc3ccccc3)NC(=O)[C@H](C)NC(=O)[C@H](C)NC(=O)[C@H](CC(=O)O)NC(=O)[C@H](CC(=O)O)NC1=O)NC(=O)[C@H](CC(C)(C)C)NC(=O)[C@H](CC(=O)O)NC2=O (stereo partly drawn) [I-1278, Ac-PL3-Asp-Npg-B5-Asp-Asp-Ala-Ala-Phe-iPrLys-PyrS2-2C1F-BztA-Gln-NH2]",,
12,,22900,14,"CC(=O)N1CCC[C@]12CC=CCCCC1(CCCC=CCCCOC(=O)N3CC[C@@](C(=O)N[C@@H](Cc4ccccc4Cl)C(=O)N[C@@H](Cc4csc5ccccc45)C(=O)N[C@H](C(N)=O)[C@@H](C)O)(C3)NC(=O)[C@H](CCCCNC(C)C)NC(=O)[C@H](Cc3ccccc3)NC(=O)[C@H](C)NC(=O)[C@H](C)NC(=O)[C@H](CC(=O)O)NC(=O)[C@H](CC(=O)O)NC1=O)NC(=O)[C@H](CC(C)(C)C)NC(=O)[C@H](CC(=O)O)NC2=O (stereo partly drawn) [I-1279, Ac-PL3-Asp-Npg-B5-Asp-Asp-Ala-Ala-Phe-iPrLys-PyrS2-2C1F-BztA-Thr-NH2]",,
22,10,24700,,"CC(=O)N1CCC[C@]12CC=CCCCC1(CCCC=CCCCOC(=O)N3CC[C@@](C(=O)N[C@@H](Cc4ccccc4Cl)C(=O)N[C@@H](Cc4csc5ccccc45)C(=O)N[C@@H](CC(C)C)C(N)=O)(C3)NC(=O)[C@H](CCCCNC(C)C)NC(=O)[C@H](Cc3ccccc3)NC(=O)[C@H](C)NC(=O)[C@H](C)NC(=O)[C@H](CC(=O)O)NC(=O)[C@H](CC(=O)O)NC1=O)NC(=O)[C@H](CC(C)(C)C)NC(=O)[C@H](CC(=O)O)NC2=O (stereo partly drawn) [I-1280, Ac-PL3-Asp-Npg-B5-Asp-Asp-Ala-Ala-Phe-iPrLys-PyrS2-2C1F-BztA-Leu-NH2]",,
10,,22200,14,"CC(=O)N1CCC[C@]12CC=CCCCC1(CCCC=CCCCOC(=O)N3CC[C@@](C(=O)N[C@@H](Cc4ccccc4Cl)C(=O)N[C@@H](Cc4csc5ccccc45)C(=O)N[C@@H](CCC(N)=O)C(N)=O)(C3)NC(=O)[C@H](CCCCNC(C)C)NC(=O)[C@H](Cc3ccccc3)NC(=O)[C@H](C)NC(=O)[C@H](C)NC(=O)[C@H](CCC(=O)O)NC(=O)[C@H](CC(=O)O)NC1=O)NC(=O)[C@H](CC(C)(C)C)NC(=O)[C@H](CC(=O)O)NC2=O (stereo partly drawn) [I-1281, Ac-PL3-Asp-Npg-B5-Asp-Glu-Ala-Ala-Phe-iPrLys-PyrS2-2C1F-BztA-Gln-NH2]",,

SMILES,"IC50 [1, 4] [nM]",Solubility [2] [µM],"IC50 [3, 5] [nM]",Solubility ([2]; Solubility (uM)) [µM],"IC50 ([1]; beta-Catenin FP IC50, fluorescence polarization) [nM]","IC50 ([3]; NanoBRET Abs IC50, absolute IC50) [nM]"
"CC(=O)N1CCC[C@]12CC=CCCCC1(CCCC=CCCCOC(=O)N3CC[C@@](C(=O)N[C@@H](Cc4ccccc4)C(=O)N[C@@H](Cc4csc5ccccc45)C(=O)N[C@@H](CO)C(N)=O)(C3)NC(=O)[C@H]([C@@H](C)O)NC(=O)[C@H](Cc3ccccc3)NC(=O)[C@H](C)NC(=O)[C@H](CC(C)C)NC(=O)[C@H]([C@@H](C)O)NC(=O)[C@H](CC(=O)O)NC1=O)NC(=O)[C@H](CC(C)(C)C)NC(=O)[C@H](CC(=O)O)NC2=O (stereo partly drawn) [I-1264, Ac-PL3-Asp-Npg-B5-Asp-Thr-Leu-Ala-Phe-Thr-PyrS2-Phe-BztA-Ser-NH2]",,10,,,157,> 20000
